The values that follow come from patent US9187458B2, “Cyanoquinoline derivatives” (Tianjin Hemay Bio-Tech Co., LTD., priority 2010, dated 2015).

Holding throughout (format): cell-based
One experiment concerns A549 cells. In words: A549 Cell Growth Inhibition Test (MTT Assay). The conditions noted are these: Homo sapiens, 72 h incubation. As to the method:
A549 Cell Growth Inhibition Test (MTT Assay)
1. Cell strains: […] (human lung caner cell strains);
Culture medium: 90% F12K+10% FBS;
(§1) 1. A plate (10 cm) of cells in logarithmic growth phase normally cultured was collected;
2. The culture solution was sucked out. Tthe plate was washed with 5 ml of PBS 1-2 times;
(§2) 3. PBS was sucked out. 2 ml of 0.25% pancreatin was added to infiltrate the cells for 1 min;
(§3) 4. The pancreatin was sucked out. The culture plate was placed in an incubator. Digestion was carried out for about 2 min at 37° C.;
(§4) 5. 4 ml of complete culture solution was added to the culture plate to stop the digestion. The cells were carefully scoured with micropipette (1 ml) to give a uniform cell suspension. The suspension was implanted into a 96-well cell culture plate by 2500 cells/100 μl per well. The culture plate was incubated overnight under 5% CO2 at 37° C. In day 2, 100 μl of culture solution comprising a compound was added in each well, and further incubated for 72 h under 5% CO2 at 37° C.
(§5) 6. The culture solution was sucked out;
(§6) 7. 100 μl of serum-free culture solution containing 0.5 mg/ml MTT was added in each well, and incubated for 3 h;
(§7) 8. The culture solution was carefully sucked out;
(§8) 9. 100 μl of DMSO was added in each well and vibrated to dissolve;
(§9) 10. OD values were determined at 490 nM.
(§10) 1. Calculation of Relative Inhibition Ratio The inhibition ratio of a compound on cell growth=(PC−n)/(PC−NC)×100%
(§11) IC50: Concentration of a compound where inhibition ratio was 50%. IC50 values were fitted with Origin7.5.

Another experiment has as its system LoVo cells. As to the kind of experiment: LoVo Cell Growth Inhibition Test (MTT Assay). The conditions noted are these: Homo sapiens, 72 h incubation. As to the method: LoVo Cell Growth Inhibition Test (MTT Assay)
1. Cell strains: LoVo (human intestinal cancer cell strains);
as §1
(§12) 2. The culture solution was sucked out. The plate was washed with 5 ml of PBS 1-2 times;
as §2
4. The pancreatin was sucked out. The culture plate was placed in an incubator. Digestion was carried out for about 4 min at 37° C.;
5. 4 ml of complete culture solution was added in the culture plate to stop the digestion. The cells were carefully scoured with micropipette (1 ml) to give a uniform cell suspension. The suspension was implanted into a 96-well cell culture plate by 3000-4000 cells/100 μl per well. The culture plate was incubated overnight under 5% CO2 at 37° C. In day 2, 100 μl of culture solution comprising a compound was added into each well, and further incubated for 72 h under 5% CO2 at 37° C.
as §5
7. 100 μl of serum-free culture solution containing 0.5 mg/ml MTT was added in each well, and incubated for 4 h;
as §7, §8, §9, §10, §11

For the next experiment, the system named is NCI-H460 cells. In words: NCI-H460 Cell Growth Inhibition Test (MTT Assay). The conditions noted are these: Homo sapiens, 72 h incubation. As to the method: NCI-H460 Cell Growth Inhibition Test (MTT Assay)
1. Cell strains: NCI-H460 (human large cell lung cancer cell strains);
as §1, §12, §2, §3, §4, §5, §6, §7, §8, §9, §10, §11

The next experiment concerns Sk-Br-3 cells. As to the kind of experiment: Sk-Br-3 Cell Growth Inhibition Test (SRB Assay). As to conditions: Homo sapiens, 91 h incubation. The procedure: Sk-Br-3 Cell Growth Inhibition Test (SRB Assay)
1. Cell strains: Sk-Br-3 (human breast cancer cell strains);
2. SRB: available from Sigmaaldrich, goods number: S9012, lot number: 047K3751. SRB was reserved at the room temperature. 0.4% (w/v) of working solution was formulated with 1% of glacial acetic acid. The solution was reserved at 4° C.; anti-tumor compounds; DMSO
Culture medium: 90% DMEM+10% FBS;
1. A plate (10 cm) of cells in logarithmic growth phase normally cultured was collected. The culture solution was sucked out. The plate was washed with 5 mL of PBS 1-2 times;
2. PBS was sucked out. […] of 0.25% pancreatin was added to infiltrate the cells for 30 s;
3. The pancreatin was sucked out. The culture plate was placed in an incubator. Digestion was carried out for about 1.5-2 min at 37° C.;
4. 4 mL of complete culture solution was added to the culture plate to stop the digestion. The cells were carefully scoured with micropipette (1 ml) to give a uniform single cell suspension;
5. Cell suspension was counted. The suspension was diluted to 1×10^5/ml. The resulting suspension was developed uniformly on a plate by 10000 cells/100 μl per well. The culture plate was incubated overnight under 5% CO2 at 37° C. In day 2, 100 μl of culture solution comprising a compound was added in each well, and further incubated for 91 h under 5% CO2 at 37° C.
6. The culture solution was sucked out. 100 uL of TCA fixed cells which were diluted to 10% were added to each well. The plate was kept in a refrigerator for 1 h at 4° C.
7. TCA stationary liquid was sucked out. Each well was washed with 150 μL of ddH2O five times;
8. After the stationary liquid was cleansed, the plate was dried in the air at the room temperature;
9. 60 μL of SRB staining solution was added in each well. The well was stained for 15 min at the room temperature;
10. The SRB staining solution was sucked out. Each well was washed with 150 μL of 1% glacial acetic acid five times;
11. After the SRB staining solution was cleansed, the plate was dried in the air at the room temperature;
12. 100 μL of 10 mM Tris was added in each well. The plate was vibrated to dissolve out SRB;
13. OD values were determined at 570 nM.
To: OD values of the starting content of cells when the cells were developed on a plate;
PC: OD values of cells after normal growth in control wells without a compound;
Ti: OD values of cells after growth in test wells with a compound;
NC: Background OD values of blank well without a compound and cells
Therefore: Ratio of cells in test wells to normal wells (% of control cell growth)=(Ti−To)/(PC−To)×100%
Ratio GI50 was concentration of a compound at the point of 50%.
Therefore: Ratio of killed cells to inoculated cells (% of killed cells)=(Ti−To)/(To−NC)×100%
LC50 was concentration point of a compound when half of the starting inoculated concentration was reached.
Concentration of a compound at this point is defined as TGI (total growth inhibition).

The next experiment has as its system AsPC-1 cells. In words: AsPC-1 Cell Growth Inhibition Test (MTT Assay). The conditions noted are these: Homo sapiens, ASPC1, 72 h incubation. As to the method: AsPC-1 Cell Growth Inhibition Test (MTT Assay)
Cell strains: AsPC-1 (human pancreatic cancer cell strains);
as §1, §12
(§13) 3. PBS was sucked out. 1.5 ml of 0.25% pancreatin was added to infiltrate the cells for 1 min;
4. The pancreatin was sucked out. The culture plate was placed in an incubator. Digestion was carried out for about 7.5 min at 37° C.;
5. 4.5 ml of complete culture solution was added to the culture plate to stop the digestion. The cells were carefully scoured with micropipette (1 ml) to give a uniform cell suspension. The suspension was implanted into a 96-well cell culture plate by 8000 cells/100 μl per well. The culture plate was incubated overnight under 5% CO2 at 37° C. In day 2, 100 μl of culture solution comprising a compound was added in each well, and further incubated for 72 h under 5% CO2 at 37° C.
as §5, §6, §7
(§14) 9. 100 μl of DMSO was added in each welland vibrated to dissolve;
as §9, §10, §11

A further experiment has as its system CCRF-CEM/T cells. As to the kind of experiment: CCRF-CEM/T Cell Growth Inhibition Test (MTT Assay). The conditions noted are these: Homo sapiens, CCRF-CEM/T cells (resistant to paclitaxel), 72 h incubation. The procedure: CCRF-CEM/T Cell Growth Inhibition Test (MTT Assay)
Cell strains: CCRF-CEM/T (human acute lymphocytic cell leukemia cells);
triple lysate solution: 10% SDS, 5% isobutanol, 0.012M HCl.
1. Cells were cultured to exponential phase. The cells were suspension cells;
2. The cells were collected by centrifuge. The resulting cells were resuspended in a complete culture medium to a desired concentration. The cells suspension was implanted into a 96-well cell culture plate by 20000 cells per well. A compound was added in the wellsuch that the final volume of the system was 120 μl. The system was further incubated for 72 h under 5% CO2 at 37° C.
7. 30 μl of serum-free culture solution containing 2.5 mg/ml MTT was added in each well, and incubated for 3 h;
8. 150 μl of triple lysate solution was added in each well and placed to dissolve at the room temperature;
9. OD values were determined at 570 nM.
as §10, §11

The subject of the next experiment is Fadu cells. As to the kind of experiment: Fadu Cell Growth Inhibition Test (MTT Assay). As to conditions: Homo sapiens, 72 h incubation. The procedure:
Fadu Cell Growth Inhibition Test (MTT Assay)
Cell strains: Fudu (human head and neck cancer cell strains);
Culture medium: 90% EMEM+10% FBS;
as §1, §12, §13
(§15) 4. The pancreatin was sucked out. The culture plate was placed in an incubator. Digestion was carried out for about 5 min at 37° C.;
5. 4.5 ml of complete culture solution was added to the culture plate to stop the digestion. The cells were carefully scoured with micropipette (1 ml) to give a uniform cell suspension. The suspension was implanted into a 96-well cell culture plate by 6000 cells/100 μl per well. The culture plate was incubated overnight under 5% CO2 at 37° C. In day 2, 100 μl of culture solution comprising a compound was added in each well, and further incubated for 72 h under 5% CO2 at 37° C.
as §5, §6, §7, §14, §9, §10, §11

The test system of the next experiment is SK-OV-3 cells. As to the kind of experiment: SK-OV-3 Cell Growth Inhibition Test (MTT Assay). The conditions noted are these: Homo sapiens, 72 h incubation. The procedure:
SK-OV-3 Cell Growth Inhibition Test (MTT Assay)
Cell strains: SK-OV-3 (human ovarian cancer cell strains);
Culture medium: 90% McCoy's 5A+10% FBS;
as §1, §12, §13, §15
5. 4.5 ml of complete culture solution was added to the culture plate to stop the digestion.T the cells were carefully scoured with micropipette (1 ml) to give a uniform cell suspension. The suspension was implanted into a 96-well cell culture disc by 4000 cells/100 μl per well. The culture plate was incubated overnight under 5% CO2 at 37° C. In day 2, 100 μl of culture solution comprising a compound was added in each well, and further incubated for 72 h under 5% CO2 at 37° C.
as §5, §6, §7, §8, §9, §10, §11

The IC50 is the concentration at which inhibition is half-maximal. Lower therefore signals higher potency. Broadly, the GI50 is the concentration that inhibits growth by half. As to `CN(C)C/C=C/C(=O)Nc1cc2c(Nc3ccc(OCc4ccc(C(C)(C)C)cc4)c(Cl)c3)c(C#N)cnc2cc1OC1CCOC1` (stereo not drawn) [Example 14, (E)-N-(4-(4-(4-TERT-BUTYLBENZYLOXY)-3-CHLOROPHENYLAMINO)-3-CYANO-7-(TETRAHYDROFURAN-3-YL-OXY)QUINOLIN-6-YL)-4-(DIMETHYLAMINO)-BUT-2-ENAMIDE], the half-maximal inhibitory concentration (IC50) in the experiment on A549 cells came to 1500 nM; in the experiment with LoVo cells it was 1300 nM; in the experiment with NCI-H460 cells it was 940 nM; with AsPC-1 cells, 1400 nM. Also, it took 924 nM to inhibit growth with Sk-Br-3 cells by half (GI50).
As to `CN(C)C/C=C/C(=O)Nc1cc2c(Nc3ccc(OCc4ccccn4)c(Cl)c3)c(C#N)cnc2cc1OC1CCOC1` (stereo not drawn) [Example 2, (E)-N-(4-(3-CHLORO-4-(PYRIDIN-2-YL-METHOXY)PHENYLAMINO)-3-CYANO-7-(TETRAHYDROFURAN-3-YL-OXY)QUINOLIN-6-YL)-4-(DIMETHYLAMINO)-BUT-2-ENAMIDE], the IC50 was 1800 nM with CCRF-CEM/T cells, 149 nM with Fadu cells, 770 nM in the experiment with AsPC-1 cells and 331 nM with SK-OV-3 cells.
